Each structure is given as a SMILES string.

Sequence of PolQ ATPase enzyme (1-894) (O75417 1-894): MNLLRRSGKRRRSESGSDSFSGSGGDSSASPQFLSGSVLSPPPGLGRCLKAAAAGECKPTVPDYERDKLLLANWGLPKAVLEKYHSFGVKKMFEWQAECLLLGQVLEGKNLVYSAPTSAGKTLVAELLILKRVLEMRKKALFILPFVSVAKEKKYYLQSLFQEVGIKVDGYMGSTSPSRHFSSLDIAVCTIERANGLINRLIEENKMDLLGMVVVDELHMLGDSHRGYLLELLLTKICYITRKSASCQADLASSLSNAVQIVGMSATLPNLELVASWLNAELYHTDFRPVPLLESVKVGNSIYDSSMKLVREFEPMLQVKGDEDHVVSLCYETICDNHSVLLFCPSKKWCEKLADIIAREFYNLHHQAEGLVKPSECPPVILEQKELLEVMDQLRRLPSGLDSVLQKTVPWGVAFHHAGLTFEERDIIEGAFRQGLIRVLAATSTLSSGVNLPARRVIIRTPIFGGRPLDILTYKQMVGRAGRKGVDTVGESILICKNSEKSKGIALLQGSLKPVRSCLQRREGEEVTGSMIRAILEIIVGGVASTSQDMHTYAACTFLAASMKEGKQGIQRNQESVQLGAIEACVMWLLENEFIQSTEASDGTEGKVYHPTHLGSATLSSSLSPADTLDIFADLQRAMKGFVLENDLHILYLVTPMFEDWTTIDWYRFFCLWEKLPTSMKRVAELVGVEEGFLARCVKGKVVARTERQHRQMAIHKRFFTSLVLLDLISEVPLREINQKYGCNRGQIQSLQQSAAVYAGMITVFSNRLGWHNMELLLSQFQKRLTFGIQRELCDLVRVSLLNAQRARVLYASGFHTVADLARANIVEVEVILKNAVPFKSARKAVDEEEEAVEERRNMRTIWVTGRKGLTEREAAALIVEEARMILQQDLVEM

The assay has as its target PolQ ATPase enzyme (1-894) (Homo sapiens (Human), UniProt O75417). The assay is described as follows: Polθ ATPase enzymatic assay (0.5 nM enzyme concentration), ADP-Glo. Conditions: 0.5 nM PolQ ATPase enzyme (1-894); average IC50. The format is biochemical. How it is done:
PolQ ATPase enzyme (1-894) at 0.5 nM is incubated with a 10-point concentration response of inhibitors for 15 min at rt in the following buffer: 50 mM Tris Cl pH 7.5, 10% glycerol, 5 mM DTT, 10 mM MgCl2, 0.1 mg/ml BSA. Following pre-incubation with inhibitors, DNA (Fork C) at 20 nM and ATP at 100 μM are added to start the reaction. Enzymatic reaction proceeds at rt for 180 min. ATP consumption is measured using the ADP-Glo assay from Promega. Luminescence is read on the Envision and IC50 are determined using the variable slope 4-parameters equation.
Oligos are annealed by heating at 95° C. for 5 min in the following buffer (10 mM Tris-HCl PH7.5, 50 mM NaCl, 1 mM EDTA) and cooled to rt. […]
In general, IC50 refers to the concentration at which inhibition is half-maximal. A high value points to a need for much substance. `COc1cnc(C(F)F)cc1-c1cc(C2C[C@@H]2C(=O)N(C)C)ncc1C(=O)Nc1nnc(C#CC2CC2)s1` (mixture of isomers) [Compound 361] came in with an IC50 of 1.9 nM.
The value for `COc1cnc(C(F)F)cc1-c1cc(C2C[C@@H]2C(=O)N(C)C)ccc1C(=O)Nc1nnc(C#CC2CC2)s1` (mixture of isomers) [Compound 362] was 1.4 nM.
The value for `COc1cnc(C(F)F)cc1-c1cc(C2C[C@H]2C(=O)N(C)C)ccc1C(=O)Nc1nnc(C#CC2CC2)s1` (mixture of isomers) [Compound 363] was less than 0.25 nM.
With `C#C[C@H]1CC1c1nnc(NC(=O)c2ccc(-c3nnc(C)o3)cc2-c2cc(C(F)F)ncc2OC)s1` (mixture of isomers) [Compound 373] the figure was 4.6 nM; with `COc1cnc(C(F)F)cc1-c1cc(N2CC3CC(C3)C2=O)ncc1C(=O)Nc1nnc(C#CC2CC2)s1` (racemic) [Compound 381], less than 0.25 nM.
`COc1cnc(C(F)F)cc1-c1cc(N2CC3CC3CC2=O)ncc1C(=O)Nc1nnc(C#CC2CC2)s1` (racemic) [Compound 388] displayed an IC50 of less than 0.25 nM.
The value for `COc1cnc(C(F)F)cc1-c1cc(C2CC(C)CCC2=O)ncc1C(=O)Nc1nnc(C#CC2CC2)s1` (racemic) [Compound 389] was less than 0.25 nM; that for `COc1cnc(C(F)F)cc1-c1cc(N2CCC3CCC3C2=O)ncc1C(=O)Nc1nnc(C#CC2CC2)s1` (racemic) [Compound 443] was less than 0.25 nM; that for `COc1cnc(C(F)F)cc1-c1cc(N2CCC(C(C)(C)C)CC2=O)ncc1C(=O)Nc1nnc(C#CC2CC2)s1` (racemic) [Compound 444] was less than 0.25 nM.
The value for `COc1cnc(C(F)F)cc1-c1cc(N2CCC(C)CCC2=O)ncc1C(=O)Nc1nnc(C#CC2CC2)s1` (racemic) [Compound 485] was 0.7 nM; that for `COc1cnc(C(F)F)cc1-c1cc(-n2ccc(C)cc2=O)ncc1C(=O)Nc1nnc([C@H]2C[C@@H]2C#N)s1` (racemic) [Compound 539] was 33.3 nM.
In the case of `COc1cnc(C(F)F)cc1-c1cc(C#CC2CCCN(C)C2)ncc1C(=O)Nc1nnc(C#CC2CC2)s1` (racemic) [Compound 556], the IC50 stood at 1.8 nM.
The value for `COc1cnc(C(F)F)cc1-c1cc(-n2ccc(C)cc2=O)ncc1C(=O)Nc1nnc(C#CC2CC23CC3)s1` (racemic) [Compound 557] was less than 0.25 nM.
The value for `COc1cnc(C(F)F)cc1-c1cc(C#CCC2CCNC2=O)ncc1C(=O)Nc1nnc(C#CC2CC2)s1` (racemic) [Compound 570] was less than 0.25 nM.
For the compound `COc1cnc(C(F)F)cc1-c1cc(-n2ccc(C)cc2=O)ncc1C(=O)Nc1nnc([C@H]2C[C@@H]2c2cncs2)s1` (racemic) [Compound 579], the IC50 came to 0.33 nM.
Turning to `COc1cnc(C(F)F)cc1-c1cc(-n2ccc(C)cc2=O)ncc1C(=O)Nc1nnc([C@H]2C[C@@H]2C2CC2)s1` (racemic) [Compound 580], the IC50 was determined as 0.34 nM. This IC50 and that of the compound before are within 1.5-fold of each other.
The value for `COc1cnc(C(F)F)cc1-c1cc(-n2ccc(C)cc2=O)ncc1C(=O)Nc1nnc([C@H]2C[C@@H]2C2CCOCC2)s1` (racemic) [Compound 581] was 0.99 nM.
For `COc1cnc(C(F)F)cc1-c1cc(-n2ccc(C)cc2=O)ncc1C(=O)Nc1nnc([C@H]2C[C@@H]2c2ccnn2C)s1` (racemic) [Compound 582], the midpoint of inhibition, the IC50, lay at 1.3 nM.
For the compound `COc1cnc(C(F)F)cc1-c1cc(-n2ccc(C)cc2=O)ncc1C(=O)Nc1nnc([C@H]2C[C@@H]2c2ccn(C)n2)s1` (racemic) [Compound 583, 2″-(difluoromethyl)-5″-methoxy-4-methyl-N-(5-((1S,2S)-2-(1-methyl-1H-pyrazol-3-yl)cyclopropyl)-1,3,4-thiadiazol-2-yl)-2-oxo-2H-[1,2′:4′,4″-terpyridine]-5′-carboxamide], the IC50 was less than 0.25 nM.
The value for `COc1cnc(C(F)F)cc1-c1cc(-n2ccc(C)cc2=O)ncc1C(=O)Nc1nnc([C@H]2C[C@@H]2c2cnn(C)c2)s1` (racemic) [Compound 584] was 0.51 nM; that for `C=C[C@H]1C[C@@H]1c1nnc(NC(=O)c2cnc(-n3ccc(C)cc3=O)cc2-c2cc(C(F)F)ncc2OC)s1` (racemic) [Compound 585] was 0.47 nM.
`COc1cnc(C(F)F)cc1-c1cc(-n2ccc(C)cc2=O)ncc1C(=O)Nc1nnc([C@H]2C[C@@H]2C(C)C)s1` (racemic) [Compound 586] showed an IC50 of 1.2 nM.
With `COc1cnc(C(F)F)cc1-c1cc(-n2ccc(C)cc2=O)ncc1C(=O)Nc1nnc([C@H]2C[C@@H]2c2ccccn2)s1` (racemic) [Compound 592] the figure was 0.48 nM; with `C#C[C@@H]1CC1c1nnc(NC(=O)c2cnc(-n3ccc(C)cc3=O)cc2-c2cc(C(F)F)ncc2OC)s1` (mixture of isomers) [Compound 593], 9.9 nM; with `COc1cnc(C(F)F)cc1-c1cc(-n2ccc(C)cc2=O)ncc1C(=O)Nc1nnc(C(C)OC)s1` (racemic) [Compound 604], 30 nM.
With `COc1cnc(C(F)F)cc1-c1cc(-n2ccc(C)cc2=O)ncc1C(=O)Nc1nnc(C2CC2(F)Cl)s1` (racemic) [Compound 605] the figure was 4 nM; with `COc1cnc(C(F)F)cc1-c1cc(C#CCN2CCOCC2)ncc1C(=O)Nc1nnc([C@H]2C[C@@H]2C)s1` (racemic) [Compound 606], 4 nM; with `COc1cnc(C(F)F)cc1-c1cc(-n2ccc(OC3CCN(C)C3)cc2=O)ncc1C(=O)Nc1nnc(C#CC2CC2)s1` (racemic) [Compound 612], 0.85 nM.
The value for `COc1cnc(C(F)F)cc1-c1cc(-n2ccc(OC3CCN(C)C3)cc2=O)ncc1C(=O)Nc1ncc(C#CC2CC2)s1` (racemic) [Compound 615] was 1.1 nM; that for `COc1cnc(C(F)F)cc1-c1cc(C#CCN2CCCC2=O)ncc1C(=O)Nc1nnc([C@H]2C[C@@H]2C)s1` (racemic) [Compound 618] was 0.81 nM; that for `COc1cnc(C(F)F)cc1-c1cc(C#CC(C)(C)O)ncc1C(=O)Nc1nnc([C@H]2C[C@@H]2C)s1` (racemic) [Compound 619] was 4.9 nM.
In turn, `COc1cnc(C(F)F)cc1-c1cc(C#CCC(C)(C)O)ncc1C(=O)Nc1nnc([C@H]2C[C@@H]2C)s1` (racemic) [Compound 620] registered an IC50 of 3.2 nM.
The value for `COc1cnc(C(F)F)cc1-c1cc(C#CCC(C)(C)O)ncc1C(=O)Nc1nnc([C@H]2C[C@@H]2c2ccn(C)n2)s1` (racemic) [Compound 622] was 1.4 nM.
Take `COCCC#Cc1cc(-c2cc(C(F)F)ncc2OC)c(C(=O)Nc2nnc([C@H]3C[C@@H]3C)s2)cn1` (racemic) [Compound 625]: the IC50 came out at 0.42 nM.
The value for `COc1cnc(C(F)F)cc1-c1cc(-n2ccc(C)cc2=O)ncc1C(=O)Nc1nnc(C2C[C@@H]2C2CCCO2)s1` (mixture of isomers) [Compound 633] was 0.95 nM.
Take `COc1cnc(C(F)F)cc1-c1cc(C#CCN2CCOCC2)ncc1C(=O)Nc1nnc([C@H]2C[C@@H]2c2cscn2)s1` (racemic) [Compound 634, 2′-(difluoromethyl)-5′-methoxy-6-(3-morpholinoprop-1-yn-1-yl)-N-(5-((1S,2S)-2-(thiazol-4-yl)cyclopropyl)-1,3,4-thiadiazol-2-yl)-[4,4′-bipyridine]-3-carboxamide]: the IC50 came to 0.86 nM.
With `COc1cnc(C(F)F)cc1-c1cc(-n2ccc(C)cc2=O)ncc1C(=O)Nc1nnc(C2C[C@@H]2c2cscn2)s1` (mixture of isomers) [Compound 635] the figure was 0.25 nM.
The value for `CC#C[C@H]1CC1c1nnc(NC(=O)c2cnc(-n3ccc(C)cc3=O)cc2-c2cc(C(F)F)ncc2OC)s1` (mixture of isomers) [Compound 637] was less than 0.25 nM; that for `CC#C[C@H]1CC1c1nnc(NC(=O)c2cnc(-n3cccc(F)c3=O)cc2-c2cc(C(F)F)ncc2OC)s1` (mixture of isomers) [Compound 638] was less than 0.25 nM.
As to `C#C[C@@]1(F)CC1c1nnc(NC(=O)c2cnc(-n3ccc(C)cc3=O)cc2-c2cc(C(F)F)ncc2OC)s1` (mixture of isomers) [Compound 639], half-maximal inhibition (IC50) required 0.47 nM.
The value for `COc1cnc(C(F)F)cc1-c1cc(C#CCN2CCOCC2)ncc1C(=O)Nc1nnc([C@H]2C[C@@H]2c2cncs2)s1` (racemic) [Compound 640] was 0.54 nM; that for `COc1cnc(C(F)F)cc1-c1cc(C#CCN2CCCC2=O)ncc1C(=O)Nc1nnc([C@H]2C[C@@H]2c2cscn2)s1` (racemic) [Compound 641] was less than 0.25 nM.
With `COc1cnc(C(F)F)cc1-c1cc(C#CCN2CCCC2=O)ncc1C(=O)Nc1nnc([C@H]2C[C@@H]2c2cncs2)s1` (racemic) [Compound 643] the figure was 0.3 nM; with `C#C[C@@H]1CC1c1nnc(NC(=O)c2cnc(-n3ccc(C)cc3=O)cc2-c2cc(C(F)F)ncc2OC)s1` (single isomer, unassigned) [Compound 480], 1.7 nM.
With `C#C[C@H]1CC1c1nnc(NC(=O)c2cnc(N3CCOC4(CC4)C3=O)cc2-c2cc(C(F)F)ncc2OC)s1` (single isomer, unassigned) [Compound 588] the figure was 0.75 nM; with `C#C[C@H]1CC1c1nnc(NC(=O)c2cnc(-n3ccc(C)cc3=O)cc2-c2cc(Cl)ncc2OC)s1` (single isomer, unassigned) [Compound 590], less than 0.25 nM; with `C#C[C@H]1C[C@@H]1c1nnc(NC(=O)c2cnc(-n3ccc(OC4CCN(C)C4)cc3=O)cc2-c2cc(C(F)F)ncc2OC)s1` (single isomer, unassigned) [Compound 626], 3.5 nM.
The compound `C#C[C@H]1CC1c1nnc(NC(=O)c2cnc(-n3ccc(OC)cc3=O)cc2-c2cc(C(F)F)ncc2OC)s1` (single isomer, unassigned) [Compound 629] had an IC50 of 1 nM.
With `C#C[C@H]1CC1c1nnc(NC(=O)c2cnc(-n3ncc(C)cc3=O)cc2-c2cc(C(F)F)ncc2OC)s1` (single isomer, unassigned) [Compound 632] the figure was 0.35 nM.
